In patent US11771647B2, “Eye drops in form of solution comprising benzopyran derivative or pharmaceutically acceptable salt thereof” (HANLIM PHARMACEUTICAL CO., LTD., priority 2018, dated 2023):
Blank lines part the entries; values can stand above or below the molecule they belong to.

Assays:
[1] = Manufacturability / solubilization of HL217 eye drop solution (appearance); format: physicochemical; conditions: pH 6.5
Protocol: That is, according to the components and amounts shown in Table 1, HL217, polyethylene glycol 400, glycerin, EDTA, and boric acid were added to the sterile purified water under stirring. The pH was adjusted to 6.5 with an aqueous hydrochloric acid solution and/or an aqueous sodium hydroxide solution; and then sterile purified water was added to the solution, so as to adjust the final volume. The amounts in Table 1 represent the amount of each component per 1 mL of the total volume.
Since the maximum allowable concentration of the U.S. Food and Drug Administration for polyethylene glycol 400 is 50 mg/ml in an eye drop formulation, the amount of polyethylene glycol 400 was adjusted to 1/10 (i.e., 15.0 mg) and correspondingly the amount of glycerin was also adjusted to 1/10 (i.e., 12.0 mg) for evaluating the solubilization of HL217. […] Specifically, according to the components and amounts shown in Table 2, HL217, polyethylene glycol 400, glycerin, EDTA, and boric acid were added to the sterile purified water under stirring. The pH was adjusted to 4.5 with an aqueous hydrochloric acid solution and/or an aqueous sodium hydroxide solution; and then sterile purified water was added to the solution, so as to adjust the final volume. The amounts in Table 2 represent the amount of each component per 1 mL of the total volume. […]

[2] = tested on: mice with very low-density lipoprotein receptor (vldlr) gene knockout; test: Inhibitory efficacy against vascular leakage in animal model of macular degeneration (FIG. 1); format: in vivo; conditions: single intravitreal administration of 1 μl (50 ng/μl ranibizumab) in each eye
Protocol: Lucentis™ injection (Norvatis, Basel, Switzerland) was used as a positive control.
The control group was instilled with 1 drop of sterile physiological saline, in each eye of normal mice (n=8), twice daily for 3 weeks. The AMD-induced group was instilled with 1 drop of sterile physiological saline, in each eye of mice with vldlr gene knockout (vldlr −/− mice), twice daily for 3 weeks. The positive control group received 1 μl of Lucentis™ injection (containing 50 ng/μl of ranibizumab) in each eye of vldlr −/− mice, by a single intravitreal administration using a Hamiltion syringe (Hamilton company, Reno, NV, USA).
The following experiments were carried out In order to evaluate any abnormality of retinal blood vessels, such as angiogenesis formation and abnormal blood vessel permeability. […] The isolated retina was placed on a slide, dropped with an aqueous mounting medium (Fluoromount™, Sigma, St. Louis, MO, USA) and then observed under a fluorescence microscope. For quantitative analysis of tracer dye, blood was collected from the heart 10 minutes after the dye injection, perfused with sterile PBS to remove residual dye from the blood vessels, and then the eyes were extracted to isolate the retina. The isolated retina was homogenized with 100 μL of PBS and then centrifuged to obtain the supernatant, in which the amount of FITC-dextran was then measured using a spectrofluorophotometer. […]

Appearance [1]: precipitates were generated
Molecule: COC(OC)[C@]1(C)Oc2ccc(N)cc2[C@H](N(Cc2ncc[nH]2)c2ccc(Cl)cc2)[C@H]1O [HL217, (2R,3R,4S)-6-amino-4-[N-(4-chlorophenyl)-N-(1H-imidazol-2-ylmethyl)amino]-3-hydroxy-2-methyl-2-dimethoxymethyl-3,4-dihydro-2H-1-benzopyran]

B1: Lucentis™ injection: Lucentis™ injection (Norvatis) containing 50 ng/μl of ranibizumab, used as a positive control (antibody, chains of the INN, looked up, V domains shown)
VH: EVQLVESGGGLVQPGGSLRLSCAASGYDFTHYGMNWVRQAPGKGLEWVGWINTYTGEPTYAADFKRRFTFSLDTSKSTAYLQMNSLRAEDTAVYYCAKYPYYYGTSHWYFDVWGQGTLVTVSS
VL: DIQLTQSPSSLSASVGDRVTITCSASQDISNYLNWYQQKPGKAPKVLIYFTSSLHSGVPSRFSGSGSGTDFTLTISSLQPEDFATYYCQQYSTVPWTFGQGTKVEIK
efficacy (vascular leakage and pathogenic angiogenesis) [2]: significant efficacy only at the 2nd week
